# Measurements reported in patent US11802120B2, “Fused cyclic urea derivatives as CRHR2 antagonist” (RaQualia Pharma Inc., priority 2018, dated 2023).
# pIC50: −log10 of the molar value.
# Target: T1, human CRHR2-alpha (Homo sapiens, UniProt Q13324)
# T1 sequence (Q13324 1-411): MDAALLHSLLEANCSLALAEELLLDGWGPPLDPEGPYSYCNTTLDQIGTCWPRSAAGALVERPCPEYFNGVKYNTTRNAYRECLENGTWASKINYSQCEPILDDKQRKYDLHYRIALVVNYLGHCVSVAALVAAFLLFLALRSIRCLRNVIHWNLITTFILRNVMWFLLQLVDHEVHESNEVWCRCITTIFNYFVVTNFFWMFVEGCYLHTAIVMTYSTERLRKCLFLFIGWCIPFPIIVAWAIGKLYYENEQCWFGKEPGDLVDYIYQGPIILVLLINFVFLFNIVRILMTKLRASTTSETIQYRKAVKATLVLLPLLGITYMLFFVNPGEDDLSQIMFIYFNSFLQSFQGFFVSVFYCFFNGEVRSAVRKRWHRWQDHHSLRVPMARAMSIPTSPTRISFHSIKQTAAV
# Assay: cAMP functional assay for human CRHR2 (LANCE Ultra cAMP, TR-FRET)
# Format: cell-based
# Conditions: CHO-K1 cells expressing human CRHR2-alpha, agonist human urocortin2 at EC80, cAMP; read-out: IC50 against CRHR2
# Summary of the method: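 CHO-K1 stable lines; 4,000 cells/well; compound 30 min, 25° C; EC80 agonist (human urocortin2 → CRHR2, CRF → CRHR1) 30 min, 25° C; buffer HBSS/0.1% BSA/0.5 mM IBMX/5 mM Hepes pH 7.4; Eu-cAMP tracer + ULight antibody 60 min; TR-FRET read; IC50 from % inhibition curves.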
row,Structure (SMILES),pIC50
1,"Cn1cc(-c2cccc(-n3c(=O)n(C[C@H]4CC[C@H](NC(=O)c5cc(Cl)cnc5C(F)F)CC4)c4ccccc43)c2)cn1 [Example 681, 5-chloro-2-(difluoromethyl)-N-((1r,4r)-4-((3-(3-(1-methyl-1H-pyrazol-4-yl)phenyl)-2-oxo-2,3-dihydro-1H-benzo [d]imidazol-1-yl)methyl)cyclo-hexyl)nicotinamide]",> 6.52
2,"Cn1cc(-c2cncc(-n3c(=O)n(C[C@H]4CC[C@H](NC(=O)c5cc(Cl)cnc5C(F)F)CC4)c4ccccc43)c2)cn1 [Example 682, 5-chloro-2-(difluoromethyl)-N-((1r,4r)-4-((3-(5-(1-methyl-1H-pyrazol-4-yl)pyridin-3-yl)-2-oxo-2,3-dihydro-1H-benzo[d]imidazol-1-yl)methyl)cyclohexyl)nicotinamide]",> 6.52
3,"COc1cncc(-n2c(=O)n(C[C@H]3CC[C@H](NC(=O)c4cc(Cl)cnc4C(F)F)CC3)c3ccccc32)c1 [Example 683, 5-chloro-2-(difluoromethyl)-N-((1r,4r)-4-((3-(5-methoxy-pyridin-3-yl)-2-oxo-2,3-dihydro-1H-benzo[d]imidazol-1-yl)methyl)cyclohexyl) nicotinamide]",> 6.52
4,"O=C(N[C@H]1CC[C@H](Cn2c(=O)n(-c3ccc(-n4nccn4)cc3)c3ccccc32)CC1)c1cc(Cl)cnc1C(F)F [Example 684, N-((1r,4r)-4-((3-(4-(2H-1,2,3-triazol-2-yl)phenyl)-2-oxo-2,3-dihydro-1H-benzo[d]imidazol-1-yl)methyl)cyclo-hexyl)-5-chloro-2-(difluoro-methyl)nicotinamide]",> 6.52
5,"O=C(N[C@H]1CC[C@H](Cn2c(=O)n(-c3ccc(-n4nccn4)nc3)c3ccccc32)CC1)c1cc(Cl)cnc1C(F)F [Example 685, N-((1r,4r)-4-((3-(6-(2H-1,2,3-triazol-2-yl)pyridin-3-yl)-2-oxo-2,3-dihydro-1H-benzo[d]imidazol-1-yl)methyl)cyclohexyl)-5-chloro-2-(difluoromethyl) nicotinamide]",> 6.52
6,"O=C(N[C@H]1CC[C@H](Cn2c(=O)n(-c3ccnc(N4CCOCC4)c3)c3ccccc32)CC1)c1cc(Cl)cnc1C(F)F [Example 686, 5-chloro-2-(difluoromethyl)-N-((1r,4r)-4-((3-(2-morpho-linopyridin-4-yl)-2-oxo-2,3-dihydro-1H-benzo[d]imidazol-1-yl)methyl)cyclohexyl) nicotinamide]",> 6.52
7,"O=C(N[C@H]1CC[C@H](Cn2c(=O)n(-c3ccnc(-c4cnco4)c3)c3ccccc32)CC1)c1cc(Cl)cnc1C(F)F [Example 687, 5-chloro-2-(difluoromethyl)-N-((1r,4r)-4-((3-(2-(oxazol-5-yl)pyridin-4-yl)-2-oxo-2,3-dihydro-1H-benzo[d]imidazol-1-yl)methyl)cyclohexyl) nicotinamide]",> 6.52
8,"O=C(N[C@H]1CC[C@H](Cn2c(=O)n(-c3cncc(-c4ncco4)c3)c3ccccc32)CC1)c1cc(Cl)cnc1C(F)F [Example 688, 5-chloro-2-(difluoromethyl)-N-((1r,4r)-4-((3-(5-(oxazol-2-yl)pyridin-3-yl)-2-oxo-2,3-dihydro-1H-benzo[d]imidazol-1-yl)methyl)cyclohexyl) nicotinamide]",> 6.52
9,"Cc1ncc(Cl)cc1C(=O)N[C@H]1CC[C@H](Cn2c(=O)n(-c3ccnc(N4CCN(C)C4=O)c3)c3ccccc32)CC1 [Example 690, 5-chloro-2-methyl-N-((1r,4r)-4-((3-(2-(3-methyl-2-oxoimi-dazolidin-1-yl)pyridin-4-yl)-2-oxo-2,3-dihydro-1H-benzo [d]imidazol-1-yl)methyl)cyclo-hexyl)nicotinamide]",> 6.52
10,"O=C(N[C@H]1CC[C@H](Cn2c(=O)n(-c3ccnc(N4CCNC4=O)c3)c3ccccc32)CC1)c1cc(Cl)cnc1C(F)F [Example 691, 5-chloro-2-(difluoromethyl)-N-((1r,4r)-4-((2-oxo-3-(2-(2-oxoimidazolidin-1-yl)pyridin-4-yl)-2,3-dihydro-1H-benzo [d]imidazol-1-yl)methyl)cyclo-hexyl)nicotinamide]",> 6.52
